Experimental data taken from patent US20230407243A1, “GENETIC PLATFORM TO INVESTIGATE THE FUNCTIONS OF BACTERIAL DRUG EFFLUX PUMPS” (priority 2022, published 2023).
≈ marks a conversion by molar mass, not a printed value. Read-outs that look alike come from different tables or passages of the source.

Assays:
[1] = test system: EKO-35-Pore expressing the P. aeruginosa pump mexCD; test: Checkerboard synergy (FICI), porinated strain; type: cell-based, Escherichia coli
Procedure, shortened: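 Read-out was OD600, the MIC being the lowest concentration without growth in a CLSI checkerboard run in MHB II. Each drug's MIC in combination was divided by its MIC alone and the two ratios summed as FICI. Cut-offs: <0.5 synergy, >0.5–1.0 additive, >1.0–2.0 indifferent, >2.0 antagonism.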

[2] = test system: EKO-35 gyrB (pCA24N); test: MIC of strains harboring ASKA plasmids; type: cell-based, Escherichia coli; details: 0.1 mM IPTG; for MIC, EKO-35 gyrB (pCA24N), Chlor +: 4 μg/mL chloramphenicol selection; for MIC, EKO-35 gyrB (pCA24N), Chlor −: no plasmid selection; for MIC: EKO-35 gyrB
[3] = test system: K-12 wcaC (pCA24N); test: microbe, parasite or virus in culture; details: Escherichia coli, 0.1 mM IPTG
Method: (§1) To enable comparison between efflux production in different genetic backgrounds, each efflux pump-encoding gene was also integrated into the genome of the wild-type BW25113 strain, the single gene deletion mutant from the Keio Collection, and EKO-35. Strains of interest were propagated on LB agar at 37° C. Cell inoculum was prepared using the colony resuspension method and applied to a 96-well well plate (VWR) in technical duplicate, and the minimum inhibitory concentrations were determined according to Clinical & Laboratory Standards Institute (CLSI) protocols in MHB II (Patel J. B. et al, 2015). The plates were incubated for 18 h (Multitron Shaker, Infors HT) at 37° C. with aeration at 900 rpm. The plates were equilibrated to room temperature before the OD600 nm was measured using a BioTek Synergy H1 microplate reader. For interplay profiling, blank subtracted OD600 nm values >0.1 were considered to represent growth.
(§2) To assess fitness of EKO-35 expressing wild-type copies of the genes identified to harbor nonsynonymous mutations, Inventors obtained clones from the E. coli ASKA library (Kitagawa, M. et al., 2005) with the rspA, tufA, pitA, wcaC, gyrB, and yjfC genes carried on plasmids, with gene expression under the control of an IPTG-inducible promoter. The ASKA plasmids were verified using Sanger sequencing and gene expression was induced with 0.1 mM IPTG. In the wild-type E. coli K-12 strain, the plasmids were maintained with 25 μg/mL chloramphenicol.

[4] = test system: ΔtolC wcaC (pCA24N); test: microbe, parasite or virus in culture
Method: as §1, §2

[5] = test system: K-12 gyrB (pCA24N); test: MIC of strains harboring ASKA plasmids; type: cell-based; details: Escherichia coli, 0.1 mM IPTG
[6] = test system: ΔtolC gyrB (pCA24N); type: cell-based, Escherichia coli
[7] = EKO-35 mexCD Pore, NMP + antibiotic
[8] = EKO-35 mexCD Pore, PAβN + antibiotic
[9] = strain EKO-35 mexCD Pore, NMP + antibiotic

Molecule: phenylalanine-arginine-β-naphthylamide [PAβN]
- PABN MICa Alone ([1]; EKO-35 mexCD Pore, PAβN alone, one value per checkerboard): 64 µg/mL
- PABN MICa Combined ([1]; EKO-35 mexCD Pore, with Ciprofloxacin): 16 µg/mL
- PABN MICa Combined ([1]; EKO-35 mexCD Pore, with Erythromycin): 8 µg/mL

Molecule: Cn1cc(Br)c(-c2cccc(NC(=O)Nc3ccc(OC(F)(F)F)cc3)c2)n1 [compound 14]
- MIC, EKO-35 gyrB (pCA24N), Chlor + [2]: >5 μg/mL
- MIC, EKO-35 gyrB (pCA24N), Chlor − [2]: >5 μg/mL

Molecule: COc1cc(Cc2cnc(N)nc2N)cc(OC)c1OC [trimethoprim]
- MIC ([3]; Chlor + (25 μg/mL)): 0.195 µg/mL
- MIC ([3]; Chlor −): 1.56 µg/mL
- MIC ([4]; Escherichia coli): 0.195 µg/mL
- MIC ([4]; ΔtolC wcaC, Chlor +, 0.1 mM IPTG): 0.195 µg/mL

Molecule: N#Cc1ccc(-c2c(NC(=O)C(Cl)Cl)oc(-c3cccs3)c2C#N)cc1 [compound 2]
- MIC, EKO-35 gyrB (pCA24N), Chlor + [2]: >5 μg/mL
- MIC, EKO-35 gyrB (pCA24N), Chlor − [2]: >5 μg/mL

Molecule: benzalkonium chloride
- MIC ([2]; Chlor + (4 μg/mL)): 0.781 µg/mL
- MIC ([2]; Chlor −): 0.781 µg/mL

Molecule: CC[C@H]1OC(=O)[C@H](C)[C@@H](O[C@H]2C[C@@](C)(OC)[C@@H](O)[C@H](C)O2)[C@H](C)[C@@H](O[C@@H]2O[C@H](C)C[C@H](N(C)C)[C@H]2O)[C@](C)(O)C[C@@H](C)C(=O)[C@H](C)[C@@H](O)[C@]1(C)O [erythromycin]
- Effect [1, 7]: Additive
- FICI [1, 7]: 0.565
- Effect [1, 8]: Synergistic
- FICI [1, 8]: 0.385
- MICb Alone ([1]; EKO-35 mexCD Pore, antibiotic alone (PAβN checkerboard)): 0.5 µg/mL
- MICb Combined ([1]; EKO-35 mexCD Pore, antibiotic in combination with PAβN): 0.13 µg/mL
- Effect [1, 9]: Additive (additive (FICI >0.5-1.0))
- FICI [1, 9]: 0.565
- MICb Alone ([1]; strain EKO-35 mexCD Pore, antibiotic alone): 2 µg/mL
- MICb Combined ([1]; strain EKO-35 mexCD Pore, antibiotic in combination with NMP): 0.13 µg/mL

Molecule: O=C(Nc1ccccc1C(=O)Nc1nnc(C(F)(F)F)s1)c1ccccc1Cl [compound 19]
- MIC, EKO-35 gyrB (pCA24N), Chlor + [2]: >5 μg/mL
- MIC, EKO-35 gyrB (pCA24N), Chlor − [2]: >5 μg/mL

Molecule: CO[C@@H]1[C@@H](OC(N)=O)[C@@H](O)[C@H](Oc2ccc3c(O)c(NC(=O)c4ccc(O)c(CC=C(C)C)c4)c(=O)oc3c2C)OC1(C)C [novobiocin]
- MIC ([5]; Chlor + (25 μg/mL)): 100 µg/mL
- MIC ([5]; Chlor −): 400 µg/mL
- MIC [6]: 12.5 µg/mL (≈ 20.4 µM)
- effect of gyrB overexpression on resistance of EKO-35 ([2]; ASKA plasmid): increased novobiocin resistance
- MIC ([2]; Escherichia coli, Chlor + (4 μg/mL), read-out: MIC): 25 µg/mL
